The source of these data is paper PMC5707448, “Luminescent platinum(II) complexes with self-assembly and anti-cancer properties: hydrogel, pH dependent emission color and sustained-release properties under physiological conditions” (Chemical Science, 2015).

Data set [1] relates to HeLa cells. Kind of data set: Naphthol blue black (NBB) staining assay, HeLa. Particulars: 72 h incubation, read-out: Anti-proliferative activities towards HeLa cells (NBB staining assay). Format: cell-based, human. The procedure:
MTT assay Cancer cells (cell density = 4000-6000 cells/100µL) were seeded in a 96-well, flat-bottomed microtitre plate in growth medium (100 µL) and incubated at 37 °C under a 5% CO2 atmosphere for 24 h. Different concentrations of complexes were added and the plates were incubated for 72 h. […]
Naphthol blue black (NBB) staining assay After a total incubation time of 72 h, the medium was removed and a mixture of 50 µL of formaldehyde (3% in PBS) and 50 µL of NBB solution (0.05% NBB, 0.1 M sodium acetate, 9% acetic acid) was added. After further 30 min incubation, the mixture was removed and each well was washed with deionized water for 3 times. The plates were air-dried and 100 µL of NaOH (50 mg/mL) was added to solubilize the NBB-stained cells. The plates were […]
shaken for 1 h. […]

In data set [2] the test system is HeLa cells. Kind of data set: Sustained cytotoxicity in Transwell plates (MTT), HeLa in lower chamber. Conditions: upper chamber loaded for 1 h, total 72 h. It counts as cell-based, human. The procedure:
The sustained cytotoxicity of 1a-hydrogel towards HeLa cells was tested in double-chambered Transwell® 24-well plates (Fig. 8a). The plate has a semi-permeable membrane to separate the HeLa cells (lower chamber) from direct contact with hydrogel (upper chamber). After treatment of HeLa cells with 1a-hydrogel (100 μM) at different time intervals, the upper chambers were removed and the HeLa cells were further incubated in the absence of the hydrogel. After a total of 72 h, the cell survival percentage was quantified by MTT assay. […] Therefore, an acidic environment can stimulate a faster release of 1a from 1a-hydrogel resulting in a more rapid cytotoxic effect. As the microenvironment of tumor tissues is often acidic compared to that of normal tissues,[20]1a-hydrogel could potentially achieve selective cytotoxicity towards tumor cells under in vivo conditions. […]
orifice, stored in pre-cooled Hank’s Balanced Solution (HBSS), and then cut with small scissor into about 2-3 mm3. The specimens were then digested with 0.5% collagenase IV at 37 °C for 15 min, filtered through sterile 100 mesh filter screen. […]
(§1) MTT assay Cancer cells (cell density = 4000-6000 cells/100µL) were seeded in a 96-well, flat-bottomed microtitre plate in growth medium (100 µL) and incubated at 37 °C under a 5% CO2 atmosphere for 24 h. […] After further in dark at 37 °C overnight, the percentage of survival cells were determined with a microtitre plate reader at 590 nm.
Naphthol blue black (NBB) staining assay After a total incubation time of 72 h, the medium was removed and a mixture of 50 µL of formaldehyde (3% in PBS) and 50 µL of NBB solution (0.05% NBB, 0.1 M sodium acetate, 9% acetic acid) was added. […] The percentage of survival cells was determined with a microtitre plate […]
and 72 h). […] After further in dark at 37 °C overnight, the percentage of survival cells were determined with a microtitre plate reader at 590 nm. […]

Data set [3] relates to HeLa cells. As to the kind of experiment: Soft agar colony formation assay. Format: cell-based, human. Conditions: 2 μM, 7 day. The procedure:
HeLa cells (0.07 × 106) were seeded with 600 µL cultured medium in the lower chambers of the double-decked Transwell® 24-well plates and incubated at 37 °C under a 5% CO2 atmosphere for 24 h. A uniform scratch was introduced on each well using a […] and the images of the scratches were recorded (0 h).
Berberine@1a-hydrogel and 1a-hydrogel in 100 µL medium was separately introduced to the upper chamber. The upper chambers were detached from the lower chamber after 4 h or 8 h incubation time. The images of the scratches were captured after 24 h incubation time.
Soft agar colony formation assay
HeLa cells (1.5 × 105) were mixed with solvent control or 1a (2 µM) in 2 mL medium with 0.35% soft agar per well in a 6-well plate coated with medium with 0.7% soft agar. 1 mL medium containing solvent control or 1a (2 µM) was added to the soft agar after the soft agar was solidified. The imaging was captured after incubating the plate at 37 °C under a 5% CO2 atmosphere for 7 day.

The next data set deals with HeLa. As to the kind of experiment: MTT cytotoxicity assay, HeLa. Format: cell-based, human. Conditions: 72 h treatment. The procedure: (§2) We then tested whether accumulation of platinum(II) complexes in lysosomes was associated with an increase in lysosomal membrane permeability (LMP). […] The cells were then treated with 1a or 2 at different concentrations.[17] […] Induction of LMP is a known cell death mechanism.[19] Therefore, we examined the cytotoxicity of the platinum(II) complexes towards different cancer cells by means of MTT (3-(4,5-dimethyl-2-thiazolyl)-2,5-diphenyltetrazolium bromide) (Table 1) and naphthol blue black (NBB) staining (Table S4 ^†) assays. […]
(§3) MTT assay Cancer cells (cell density = 4000-6000 cells/100µL) were seeded in a 96-well, flat-bottomed microtitre plate in growth medium (100 µL) and incubated at 37 °C under a 5% CO2 atmosphere for 24 h. Different concentrations of complexes were added and the plates were incubated for 72 h. After a total incubation time of 72 h, MTT in PBS solution (5 mg/mL, 10 µL) was added to each well. The plates were incubated at 37 °C under a 5% CO2 atmosphere for another 4 h, followed by adding 100 µL of sodium dodecyl sulfate (SDS, 10%) in diluted hydrochloric acid to each well. After further in dark at 37 °C overnight, the percentage of survival cells were determined with a microtitre plate reader at 590 nm. […]
On the technique in general: Tetrazolium assays rely on reduction of a dye to a coloured formazan, in cell work by metabolically active cells.

In data set [4] the test system is nasopharyngeal carcinoma (SUNE1). Kind of data set: MTT cytotoxicity assay, SUNE1. It counts as cell-based. Conditions: 72 h treatment. As to the method: as §2, §3
Another data set deals with breast cancer (MDA). Kind of data set: MTT cytotoxicity assay, MDA. Format: cell-based. Particulars: 72 h treatment. The procedure: as §2, §3
In data set [5] the test system is non-tumorigenic immortalized liver cells (MIHA). Kind of data set: MTT cytotoxicity assay, MIHA. It counts as cell-based. Particulars: 72 h treatment. As to the method: as §2, §3
Data set [6] concerns ovarian carcinoma (A2780). Kind of data set: MTT cytotoxicity assay, A2780. Format: cell-based. Particulars: 72 h treatment. As to the method: as §2, §3
The subject of data set [7] is HeLa cells. Kind of data set: Lysosomal membrane permeability by acridine orange staining. Conditions: 5 or 10 μM, 30 min, 37 °C. It counts as cell-based, human.
In data set [8] the test system is hepatocellular carcinoma cells (HepG2). As to the kind of experiment: MTT cytotoxicity assay, HepG2. Format: cell-based. Conditions: 72 h treatment. The procedure: as §2, §3
The subject of a further data set is B16 melanoma. Kind of data set: MTT cytotoxicity assay, B16. Conditions: 72 h treatment. It counts as cell-based. The procedure: as §2, §3
For data set [9], the system named is primary bladder cancer cells. Kind of data set: MTT assay on primary bladder cancer cells. Format: cell-based, human. Particulars: 72 h incubation, read-out: Cytotoxic IC50, primary bladder cancer cells. As to the method:
orifice, stored in pre-cooled Hank’s Balanced Solution (HBSS), and then cut with small scissor into about 2-3 mm3. The specimens were then digested with 0.5% collagenase IV at 37 °C for 15 min, filtered through sterile 100 mesh filter screen. The cells were collected by centrifugation at 700 g for 5 min, and then re-suspended in DMEM culture medium supplemented with penicillin (100 units/ml), streptomycin (100 μg/ml) and fungazone (0.25 μg/ml) at 37 °C in 95% air, 5% CO2, and cultured in […]
The medium was replaced continuously every day. The interstitial cells were removed from the primary bladder cancer cells by trypsinization with 10-times diluted enzyme. The cells were used for drug screening when the confluence reached about 70%-80%. […]
as §1
Naphthol blue black (NBB) staining assay After a total incubation time of 72 h, the medium was removed and a mixture of 50 µL of formaldehyde (3% in PBS) and 50 µL of NBB solution (0.05% NBB, 0.1 M sodium acetate, 9% acetic acid) was added. […] The percentage of survival cells was determined with a microtitre plate

Where [10] appears, read: pH 7.4, 1a-hydrogel and cisplatin 100 μM.

Each structure is given as a SMILES string.

On to `N.N.[Cl][Pt][Cl]` [Cisplatin], for which the IC50 in the data set with HeLa cells [1] was 4.29 ± 0.36 µM. Moreover, the Cell survival with HeLa cells [2] (pH 6.0, 100 μM) is about 20%; in the data set on HeLa cells [2] (setting [10]), about 20%.

`Cc1cccc(C)c1[N+]#[C][Pt-2]12[c]3ccccc3-c3cccc([n+]31)-c1cc[nH][n+]12.[Cl-]` (centres unmarked) [Complex 1a, [Pt(C^N^N^pyr)(C?NR^1)]Cl]: in the data set with HeLa cells [3], the Anchorage-independent colony formation entry is reported as “inhibited anchorage-independent colony formation”. The IC50 in the data set on HeLa stood at 4.4 ± 0.6 µM; in data set [4] it was 3.5 ± 0.8 µM; in the data set on breast cancer (MDA) it was 1.6 ± 0.4 µM; in data set [5], 6.36 ± 0.15 µM; in data set [6], 1.2 ± 0.1 µM; in data set [8] it was 1.3 ± 0.1 µM. Moreover, the IC50 with B16 melanoma was determined as 0.66 ± 0.04 µM; with HeLa cells [1] it was 1.05 ± 0.06 µM; in [9], 6.9 µM. In the data set on HeLa cells [7], the “Lysosomal membrane permeability (red fluorescence of acridine orange)” value was “dose-dependent reductions of red fluorescence”. In the data set with HeLa cells [2] (setting [10]), this compound displayed a Cell survival of about 15%.

As for `Cc1cccc(C)c1[N+]#[C][Pt-2]12[c]3ccccc3-c3cccc([n+]31)-c1cc[nH][n+]12.O=S(=O)(O)C(F)(F)F` (centres unmarked) [Complex 1b], the IC50 in the data set on HeLa amounted to 2.8 ± 0.2 µM; in data set [4] it was 2.8 ± 0.6 µM; in the data set on breast cancer (MDA), 2.1 ± 0.5 µM; in data set [5], 5.23 ± 0.62 µM; in data set [6], 1.2 ± 0.1 µM; in data set [8], 1.7 ± 0.4 µM. Further, the IC50 was 0.42 ± 0.02 µM in the data set with B16 melanoma and 0.9 ± 0.17 µM in the data set with HeLa cells [1].

As to `CCCC[N+]#[C][Pt-2]12[c]3ccccc3-c3cccc([n+]31)-c1cc[nH][n+]12.[Cl-]` (centres unmarked) [Complex 2], the IC50 stood at 5.1 ± 1.1 µM with HeLa; 4.4 ± 1 µM in [4]; 5 ± 0.2 µM with breast cancer (MDA); 8.12 ± 1.27 µM in [5]; 3.3 ± 0.2 µM in data set [6]; 4 ± 0.8 µM in data set [8]. In addition, the IC50 in the data set on B16 melanoma turned out to be 0.85 ± 0.07 µM; in the data set on HeLa cells [1], 2.28 ± 0.18 µM. In addition, in the data set on HeLa cells [7], the “Lysosomal membrane permeability (red fluorescence of acridine orange)” value is reported as “dose-dependent reductions of red fluorescence”.

`COc1ccc([N+]#[C][Pt-2]23[c]4ccccc4-c4cccc([n+]42)-c2cc[nH][n+]23)cc1.O=S(=O)(O)C(F)(F)F` (centres unmarked) [Complex 3]: the IC50 in the data set on HeLa came out at 3.8 ± 0.5 µM; in data set [4], 3.9 ± 0.7 µM; with breast cancer (MDA), 4.2 ± 1 µM; in data set [5], 9.56 ± 2.15 µM; in data set [6] it was 2.7 ± 0.1 µM; in [8], 2.7 ± 0.2 µM. For the same compound, the values for the IC50 with B16 melanoma and in the data set with HeLa cells [1] were 2.6 ± 0.2 µM and 1.98 ± 0.21 µM, respectively.

Regarding `O=S(=O)(O)C(F)(F)F.[C](#[N+]c1ccc2ccccc2c1)[Pt-2]12[c]3ccccc3-c3cccc([n+]31)-c1cc[nH][n+]12` (centres unmarked) [Complex 4], the IC50 in the data set with HeLa worked out at 8.3 ± 0.9 µM; in data set [4], 7.9 ± 1.3 µM; with breast cancer (MDA), 7.4 ± 0.5 µM; in data set [5], 13.5 ± 2.12 µM; in data set [6], 5 ± 0.2 µM; in [8], 6.2 ± 0.6 µM. Also, the IC50 stood at 3 ± 0.3 µM in the data set on B16 melanoma and 3.52 ± 0.89 µM in the data set on HeLa cells [1].

As to `COCCOCCOc1ccc([N+]#[C][Pt-2]23[c]4ccccc4-c4cccc([n+]42)-c2cc[nH][n+]23)cc1.O=S(=O)(O)C(F)(F)F` (centres unmarked) [Complex 5], the IC50 in the data set with HeLa came out at 14.4 ± 3.5 µM; in data set [4] it was 12.3 ± 4.2 µM; in the data set with breast cancer (MDA), 8.3 ± 1.6 µM; in data set [5], 20.2 ± 2.92 µM; in [6], 11.7 ± 2.1 µM; in data set [8], 9 ± 1.6 µM. In addition, the IC50 in the data set on B16 melanoma was determined as 6.2 ± 0.5 µM; in the data set on HeLa cells [1], 9.47 ± 1.92 µM.
